Measured values as given in US11447445B2, “Diabetes and metabolic syndrome treatment with a novel dual modulator of soluble epoxide hydrolase and peroxisome proliferator-activated receptors” (priority 2015, dated 2022).
In brackets after ≈: the same amount, converted by molar mass.

Key:
recombinant human sEH = target: T1, recombinant human sEH (Homo sapiens, UniProt P34913); test: biochemical; conditions: for IC50: read-out: IC50 sEH (converted); for inhibition at 10 µM: read-out: sEH inhibition @10 μM (converted)
T1 sequence (P34913 1-555): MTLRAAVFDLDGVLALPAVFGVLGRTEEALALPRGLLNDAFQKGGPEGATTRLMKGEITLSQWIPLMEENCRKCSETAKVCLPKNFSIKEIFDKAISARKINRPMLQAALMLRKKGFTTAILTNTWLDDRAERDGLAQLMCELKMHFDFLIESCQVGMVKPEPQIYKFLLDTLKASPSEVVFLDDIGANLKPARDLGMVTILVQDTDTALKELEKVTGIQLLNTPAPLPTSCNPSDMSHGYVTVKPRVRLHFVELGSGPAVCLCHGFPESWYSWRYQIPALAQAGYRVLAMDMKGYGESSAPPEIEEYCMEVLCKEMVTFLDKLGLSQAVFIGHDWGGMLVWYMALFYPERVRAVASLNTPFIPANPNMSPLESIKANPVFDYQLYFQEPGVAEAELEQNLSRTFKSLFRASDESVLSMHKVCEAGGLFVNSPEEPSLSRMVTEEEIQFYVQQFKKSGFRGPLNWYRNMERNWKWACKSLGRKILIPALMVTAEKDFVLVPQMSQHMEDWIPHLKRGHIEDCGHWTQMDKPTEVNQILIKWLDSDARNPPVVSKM

PPARγ = target: T2, PPARγ (Homo sapiens, UniProt P37231); test: cell-based; format: cell-based; conditions: i.a. = inactive
T2 construct: expressed in transfected cells; host or cells: COS-7
T2 sequence (P37231 238-503): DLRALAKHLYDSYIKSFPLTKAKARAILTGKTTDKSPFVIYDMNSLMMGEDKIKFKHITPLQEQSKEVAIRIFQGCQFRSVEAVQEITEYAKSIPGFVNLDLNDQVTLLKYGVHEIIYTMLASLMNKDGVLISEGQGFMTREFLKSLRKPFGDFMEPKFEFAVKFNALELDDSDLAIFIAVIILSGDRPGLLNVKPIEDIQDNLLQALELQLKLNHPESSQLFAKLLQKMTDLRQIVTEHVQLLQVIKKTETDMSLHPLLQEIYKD
Experimental: (§1) COS-7 cells (PPAR) were grown in DMEM high glucose, supplemented with 10% fetal calf serum (FCS), 1% sodium pyruvate (SP) and 1% penicillin/streptomycin (PS) at 37° C. and 5% CO2. Used plasmids for PPAR transactivation assay are shown under supporting informations.
(§2) The day before transfection, COS-7 cells were seeded in 96-well plates with a density of 30,000 cells per well. Transient transfection was carried out using Lipofectamine LTX reagent (Invitrogen, Carlsbad, Calif., USA) according to the manufacturer's protocol with pFR-Luc (Stratagene), pRL-SV40 (Promega) and the Ga14-fusion receptor plasmids (pFA-CMV-hPPAR-LBD) of the respective PPAR subtype. 5 h after transfection, medium was changed to DMEM without phenol red and 10% FCS, supplemented with 1% SP, 1% PS and 1% L-glutamine, now additionally containing 0.1% DMSO and the respective test compound or 0.1% DMSO alone as untreated control. Each concentration was tested in triplicate wells and each experiment was repeated independently at least three times. Following overnight incubation with the test compounds, cells were assayed for luciferase activity using Dual-Glo™ Luciferase Assay System (Promega) according to the manufacturer's protocol. Luminescence was measured with an Infinite m200 luminometer (Tecan Deutschland GmbH). Each concentration of the compounds was tested in triplicate wells. Normalization for transfection efficacy and cell growth was done by division of the firefly luciferase data by renilla luciferase data resulting in relative light units. Activation factors were obtained by dividing by DMSO control. […] All compounds were evaluated by comparison of the achieved maximum effect to that of the reference compound (pioglitazone for PPARγ, GW7647 for PPARa, and L165041 for PPARS each with 1 μM). Data are expressed as mean±SE; n≥3.
(§3) The Gal4-fusion receptor plasmids pFA-CMV-PPARa-LBD, pFA-CMV-PPARS-LBD and pFA-CMV-PPARγ-LBD containing the hinge region and ligand binding domain (LBD) for each of the PPAR subtypes, respectively, were constructed by integrating cDNA fragments obtained from PCR amplification of human monocytes into the SmaI/XbaI cleavage site of the pFA-CMV vector (Stratagene, La Jolla, Calif., USA) and have already been published. […] Frame and sequence of the fusion receptors were verified by sequencing. pFR-Luc (Stratagene) was used as reporter plasmid and pRL-SV40 (Promega) for normalization of transfection efficacy and cell growth.

PPARδ = target: T3, PPARδ (Homo sapiens, UniProt Q03181); test: PPAR transactivation assay in COS-7 cells (Gal4-hPPAR-LBD, luciferase); format: cell-based; conditions: i.a. = inactive
T3 construct: expressed in transfected cells; host or cells: COS-7
T3 sequence (Q03181 211-439): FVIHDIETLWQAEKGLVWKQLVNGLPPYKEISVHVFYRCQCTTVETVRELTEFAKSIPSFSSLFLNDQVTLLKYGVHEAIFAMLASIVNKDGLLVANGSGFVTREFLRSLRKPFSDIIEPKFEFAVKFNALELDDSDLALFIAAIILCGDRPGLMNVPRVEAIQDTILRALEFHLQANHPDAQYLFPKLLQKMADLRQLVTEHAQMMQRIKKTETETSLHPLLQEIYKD
Experimental: as §1, §2, §3

PPARα = target: T4, PPARα (Homo sapiens, UniProt Q07869); format: cell-based; conditions: i.a. = inactive
T4 construct: expressed in transfected cells; host or cells: COS-7
T4 sequence (Q07869 239-466): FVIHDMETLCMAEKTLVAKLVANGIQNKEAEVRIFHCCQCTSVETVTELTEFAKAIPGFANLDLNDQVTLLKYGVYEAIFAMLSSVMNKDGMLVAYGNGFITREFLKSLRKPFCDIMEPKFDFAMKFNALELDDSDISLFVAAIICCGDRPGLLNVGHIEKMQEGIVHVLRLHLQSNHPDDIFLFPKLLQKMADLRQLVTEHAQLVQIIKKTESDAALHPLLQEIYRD
Experimental: as §1, §2, §3

[1] = Water solubility approximation; format: physicochemical; conditions: PBS with 0.01% Polysorbate 20, aqueous with cosolvent or surfactant or cyclodextrin, kinetic from dmso stock; PBS pH 7.4, 0.01% Polysorbate 20, 1% DMSO; precipitation at 650 nm; read-out: w.s. (water solubility)
Experimental: PBS at pH 7.4 with 0.01% Polysorbate 20 (Tween) was combined with 1% of a DMSO solution of the inquired compound in a 96-well transparent flat bottom microtiter plate. Precipitation of the compound was measured at 650 nm with a Tecan Infinite 200 (Tecan Group Ltd, Mannedorf, Switzerland).

SMILES	IC50 (recombinant human sEH) [nM]	EC50 PPARγ (PPARγ)	EC50 PPARδ (PPARδ)	EC50 PPARα (PPARα)	solubility [1] [µM]	inhibition at 10 µM (recombinant human sEH) [%]
CON(C)C(=O)/C=C/c1ccc(C(=O)NCc2ccccc2C(F)(F)F)cc1 [Compound 20]	70 ± 20	i.a.	i.a.	i.a.	–	–
CCOC(=O)C(CC)Cc1ccc(C(=O)NCc2ccc(Cl)cc2)cc1 (centres unmarked) [Compound 11b, Ethyl 2-ethyl 3-[4-(N-((4-chloro)benzyl)benzamide)]propanoate]	–	–	n.t. i.a. i.a. n.t.	n.t. i.a. i.a. n.t.	10 (≈ 3.74 µg/mL)	–
CCC(Cc1ccc(C(=O)NCc2ccccc2OC(F)(F)F)cc1)C(=O)O (centres unmarked) [Compound 6c, 2-Ethyl 3-[4-(N-((2-trifluoromethoxy)benzyl)benzamide)]propionic acid]	–	–	n.t. i.a. i.a. n.t.	n.t. i.a. i.a. n.t.	500 (≈ 198 µg/mL)	23
CCOC(=O)C(CC)Cc1ccc(C(=O)NCc2ccccc2OC(F)(F)F)cc1 (centres unmarked) [Compound 6b, Ethyl 2-ethyl 3-[4-(N-((2-trifluoromethoxy)benzyl)benzamide)]propanoate]	–	–	n.t. i.a. i.a. n.t.	n.t. i.a. i.a. n.t.	100 (≈ 42.3 µg/mL)	–
CCOC(=O)C(C)Cc1ccc(C(=O)NCc2ccccc2C(F)(F)F)cc1 (centres unmarked) [Compound 17b, Ethyl 2-methyl 3-[4-(N-((2-trifluoromethyl)benzyl)benzamide)]propanoate]	250 ± 40	–	i.a.	i.a.	10 (≈ 3.93 µg/mL)	–
O=C(O)/C=C/c1ccc(C(=O)NCc2ccccc2C(F)(F)F)cc1 [Compound 16d, (E)-4-[N-((2-Trifluoromethyl)benzyl)benzamide]-cinnamic acid]	800 ± 50	–	i.a.	i.a.	10 (≈ 3.49 µg/mL)	–
CCC(Cc1ccc(C(=O)NCc2ccc(Cl)cc2)cc1)C(=O)O (centres unmarked) [Compound 11c, 2-Ethyl 3-[4-(N-((4-chloro)benzyl)benzamide)]propionic acid]	–	–	n.t. i.a. i.a. n.t.	n.t. i.a. i.a. n.t.	500 (≈ 173 µg/mL)	–
CC/C(=C\c1ccc(C(=O)NCc2ccc(C(F)(F)F)cc2)cc1)C(=O)O [Compound 8d, (E)-4-[N-((4-Trifluoromethyl)benzyl)benzamide]-alpha-ethylcinnamic acid]	2800	–	–	–	500 (≈ 189 µg/mL)	–
CCOC(=O)C(CC)Cc1ccc(C(=O)NCc2ccc(OC)cc2)cc1 (centres unmarked) [Compound 10b, Ethyl 2-ethyl 3-[4-(N-((4-methoxy)benzyl)benzamide)]propanoate]	–	–	n.t. i.a. i.a. n.t.	n.t. i.a. i.a. n.t.	10 (≈ 3.69 µg/mL)	–
CCOC(=O)/C(=C/c1ccc(C(=O)NCc2ccccc2C(F)(F)F)cc1)c1ccccc1 [Compound 19a, Ethyl (E)-4-[N-((2-trifluoromethyl)benzyl)benzamide]-alpha-phenylcinnamate]	160 ± 30	–	–	–	1 (≈ 0.453 µg/mL)	–
CCOC(=O)/C=C/c1ccc(C(=O)NCc2ccccc2C(F)(F)F)cc1 [Compound 16a, Ethyl (E)-4-[N-((2-trifluoromethyl)benzyl)benzamide]-cinnamate]	130 ± 5	–	i.a.	i.a.	2.5 (≈ 0.943 µg/mL)	–
CCOC(=O)/C(C)=C/c1ccc(C(=O)NCc2ccccc2C(F)(F)F)cc1 [Compound 17a, Ethyl (E)-4-[N-((2-trifluoromethyl)benzyl)benzamide]-alpha-methylcinnamate]	100 ± 30	–	–	–	10 (≈ 3.91 µg/mL)	–
CC(Cc1ccc(C(=O)NCc2ccccc2C(F)(F)F)cc1)C(=O)O (centres unmarked) [Compound 17c, 2-Methyl 3-[4-(N-((2-trifluoromethyl)benzyl)benzamide)]propionic acid]	8000 ± 1600	–	i.a.	i.a.	500 (≈ 183 µg/mL)	–
CCC(Cc1ccc(C(=O)NCc2ccc(OC)cc2)cc1)C(=O)O (centres unmarked) [Compound 10c, 2-Ethyl 3-[4-(N-((4-methoxy)benzyl)benzamide)]propionic acid]	–	–	n.t. i.a. i.a. n.t.	n.t. i.a. i.a. n.t.	500 (≈ 171 µg/mL)	34
O=C(O)CCc1ccc(C(=O)NCc2ccccc2C(F)(F)F)cc1 [Compound 16c, 3-[4-(N-((2-trifluoromethyl)benzyl)benzamide)]propionic acid]	9000 ± 1700	–	i.a.	i.a.	500 (≈ 176 µg/mL)	–
CCOC(=O)CCc1ccc(C(=O)NCc2ccccc2C(F)(F)F)cc1 [Compound 16b, Ethyl 3-[4-(N-((2-trifluoromethyl)benzyl)benzamide)]propanoate]	110 ± 3	–	i.a.	i.a.	5 (≈ 1.9 µg/mL)	–
CCC(Cc1ccc(C(=O)NCc2ccccc2Br)cc1)C(=O)O (centres unmarked) [Compound 5c, 2-Ethyl 3-[4-(N-((2-bromo)benzyl)benzamide)]propionic acid]	–	–	n.t. i.a. i.a. n.t.	n.t. i.a. i.a. n.t.	500 (≈ 195 µg/mL)	34
CCOC(=O)/C(=C/c1ccc(C(=O)NCc2ccc(Cl)cc2)cc1)CC [Compound 11a, Ethyl (E)-4-[N-((4-chloro)benzyl)benzamide]-alpha-ethylcinnamate]	3000 ± 1400	–	–	–	10 (≈ 3.72 µg/mL)	–
CCOC(=O)C(Cc1ccc(C(=O)NCc2ccccc2C(F)(F)F)cc1)c1ccccc1 (centres unmarked) [Compound 19b, Ethyl 2-phenyl 3-[4-(N-((2-trifluoromethyl)benzyl)benzamide)]propanoate]	120 ± 13	–	i.a.	i.a.	5 (≈ 2.28 µg/mL)	–
CCCC(Cc1ccc(C(=O)NCc2ccccc2C(F)(F)F)cc1)C(=O)O (centres unmarked) [Compound 18c, 2-Propyl 3-[4-(N-((2-trifluoromethyl)benzyl)benzamide)]propionic acid]	5000 ± 1300	–	i.a.	i.a.	500 (≈ 197 µg/mL)	–
CCCC(Cc1ccc(C(=O)NCc2ccccc2C(F)(F)F)cc1)C(=O)OCC (centres unmarked) [Compound 18b, Ethyl 2-propyl 3-[4-(N-((2-trifluoromethyl)benzyl)benzamide)]propanoate]	170 ± 40	–	i.a.	i.a.	5 (≈ 2.11 µg/mL)	–
O=C(O)/C(=C/c1ccc(C(=O)NCc2ccccc2C(F)(F)F)cc1)c1ccccc1 [Compound 19d, (E)-4-[N-((2-Trifluoromethyl)benzyl)benzamide]-alpha-phenylcinnamic acid]	800 ± 10	–	–	–	50 (≈ 21.3 µg/mL)	–
CCOC(=O)/C(=C/c1ccc(C(=O)NCc2ccccc2OC(F)(F)F)cc1)CC [Compound 6a, Ethyl (E)-4-[N-((2-trifluoromethoxy)benzyl)benzamide]-alpha-ethylcinnamate]	60 ± 13	–	–	–	10 (≈ 4.21 µg/mL)	–
O=C(NCc1ccccc1C(F)(F)F)c1ccc(CC(C(=O)O)c2ccccc2)cc1 (centres unmarked) [Compound 19c, 2-Phenyl 3-[4-(N-((2-trifluoromethyl)benzyl)benzamide)]propionic acid]	2500 ± 500	–	i.a.	i.a.	100 (≈ 42.7 µg/mL)	–
